This is an account of results in patent publication EP4667483A1, “HUMAN TRANSFERRIN RECEPTOR-BINDING PEPTIDE” (JCR Pharmaceuticals Co., Ltd., priority 2023, dated 2024).

What all share (assay type): binding
Assay [1] addresses T1, human transferrin receptor (hTfR) (Homo sapiens, UniProt P02786). Put plainly: Evaluation of pH dependence (ratio of SPR koff or KD at pH 6.0 to pH 7.4). To be noted: ratio of koff at pH 6.0 to pH 7.4. As to the method: The ratio of the calculated koff or KD values under pH 6.0 conditions to those under pH 7.4 conditions was calculated to check pH dependency.
The target in assay [2] is T1, human transferrin receptor (hTfR). The assay can be described thus: SPR measurement under pH 7.4 conditions (Biacore T200, CM3 chip, hTfR captured by His Tag antibody). The conditions noted are these: SPR, pH 7.4; read-out: hTfR SPR pH7.4 KD. (SPR reads the build-up and loss of mass on a sensor chip optically.)
Assay [3] has the same target. The assay can be described thus: SPR measurement under pH 6.0 conditions (Biacore T200, NTA chip, immobilized hTfR). To be noted: SPR, pH 6.0; read-out: hTfR SPR pH6.0 KD.

Bridge positions count the residues as written; N and C are the ends. Square brackets hold non-standard residues; d marks the D form. Peptide text beside a SMILES is read from it. * marks the point of attachment. Trp(1-CH2COOH) = N[C@@H](Cc1cn(CC(=O)O)c2ccccc12)C(=O)O; NMePhe(4-COOH) = CN[C@@H](Cc1ccc(C(=O)O)cc1)C(=O)O; Nle(6-morpholino) = N[C@@H](CCCCN1CCOCC1)C(=O)O; Phe(3-COOH) = N[C@@H](Cc1cccc(C(=O)O)c1)C(=O)O; NMePhe(3-Cl) = CN[C@@H](Cc1cccc(Cl)c1)C(=O)O; 3Pal(6-NH2) = Nc1ccc(C[C@H](N)C(=O)O)cn1; NMeY = CN[C@@H](Cc1ccc(O)cc1)C(=O)O; Nva(3-Et) = CCC(CC)[C@H](N)C(=O)O; PEG4 = NCCOCCOCCOCCOCCC(=O)O; Carboxymethyl = O=C(O)C*

T1 sequence (P02786 whole entry): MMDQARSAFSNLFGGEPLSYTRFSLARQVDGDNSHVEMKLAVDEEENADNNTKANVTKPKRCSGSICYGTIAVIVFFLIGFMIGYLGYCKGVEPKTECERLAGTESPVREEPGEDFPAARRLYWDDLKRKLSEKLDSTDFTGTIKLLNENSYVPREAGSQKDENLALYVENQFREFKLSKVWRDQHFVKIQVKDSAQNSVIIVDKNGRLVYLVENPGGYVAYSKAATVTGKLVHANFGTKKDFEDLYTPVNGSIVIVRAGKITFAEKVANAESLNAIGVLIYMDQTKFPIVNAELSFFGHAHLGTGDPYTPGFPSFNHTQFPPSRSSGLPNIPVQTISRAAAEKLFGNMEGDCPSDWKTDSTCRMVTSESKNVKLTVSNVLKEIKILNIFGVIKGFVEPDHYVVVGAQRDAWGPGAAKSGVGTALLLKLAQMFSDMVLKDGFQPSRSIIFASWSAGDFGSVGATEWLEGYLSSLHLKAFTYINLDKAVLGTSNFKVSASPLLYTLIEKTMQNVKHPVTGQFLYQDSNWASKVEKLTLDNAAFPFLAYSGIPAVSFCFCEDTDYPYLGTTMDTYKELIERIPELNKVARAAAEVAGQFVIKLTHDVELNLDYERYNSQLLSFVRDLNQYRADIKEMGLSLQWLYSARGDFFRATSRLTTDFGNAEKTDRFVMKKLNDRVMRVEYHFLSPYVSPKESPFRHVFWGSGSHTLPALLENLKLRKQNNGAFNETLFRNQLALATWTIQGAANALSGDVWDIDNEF

With `CCC(CC)[C@@H]1NC(=O)[C@H](Cc2ccc(OCC(=O)O)cc2)NC(=O)[C@H](Cc2ccc(N)nc2)NC(=O)[C@H](CC(N)=O)NC(=O)[C@H](Cc2cn(CC(=O)O)c3ccccc23)NC(=O)[C@H](C(C)C)NC(=O)[C@H](Cc2cccc(Cl)c2)N(C)C(=O)[C@H](C(C)C)NC(=O)[C@H](C)NC(=O)CSC[C@@H](C(=O)NCCOCCOCCOCCOCCC(N)=O)NC(=O)[C@H](Cc2ccc(C(=O)O)cc2)N(C)C(=O)[C@H](Cc2cccc(C(=O)O)c2)NC(=O)[C@H](CCCNC(=N)N)NC(=O)[C@H](CCC(N)=O)NC(=O)[C@H]([C@@H](C)CC)NC1=O` [compound 87] ({CH2CO}-AV[NMePhe(3-Cl)]V[Trp(1-CH2COOH)]N[3Pal(6-NH2)]Y(Carboxymethyl)[Nva(3-Et)]IQR[Phe(3-COOH)][NMePhe(4-COOH)]C[PEG4]-NH2; thioether N-15), in assay [1], the “dependency koff pH6.0/7.4” value is 17.51. In addition, the Kd (in general, the equilibrium constant for the complex coming apart) in assay [2] is 175 nM; in assay [3] it was 466 nM.

For the molecule `CCC(CC)[C@@H]1NC(=O)[C@H](Cc2ccc(OCC(=O)O)cc2)NC(=O)[C@H](Cc2ccc(N)nc2)NC(=O)[C@H](CC(N)=O)NC(=O)[C@H](Cc2cn(CC(=O)O)c3ccccc23)NC(=O)[C@H](C(C)C)NC(=O)[C@H](Cc2cccc(Cl)c2)N(C)C(=O)[C@H](C(C)C)NC(=O)[C@H](C)NC(=O)CSC[C@@H](C(=O)NCCOCCOCCOCCOCCC(N)=O)NC(=O)[C@H](Cc2ccc(O)cc2)N(C)C(=O)[C@H](Cc2cccc(C(=O)O)c2)NC(=O)[C@H](CCCCN2CCOCC2)NC(=O)[C@H](CCCCN2CCOCC2)NC(=O)[C@H]([C@@H](C)CC)NC1=O` [compound 83] ({CH2CO}-AV[NMePhe(3-Cl)]V[Trp(1-CH2COOH)]N[3Pal(6-NH2)]Y(Carboxymethyl)[Nva(3-Et)]I[Nle(6-morpholino)][Nle(6-morpholino)][Phe(3-COOH)][NMeY]C[PEG4]-NH2; thioether N-15), the “dependency koff pH6.0/7.4” value in assay [1] is on record as 32.62. Also, the Kd amounted to 43.7 nM in assay [2] and 144 nM in assay [3].
